{"source": "patent US20210196714A1", "about": "“COMPOSITIONS AND METHODS FOR TREATING DISORDERS CHARACTERIZED WITH ABERRANT RAS/MAPK SIGNALING” (Duke University, priority 2018, published 2021)", "system": "kmt2d CRISPR mosaic mutants (F0)", "assay": "Jaw defects in kmt2d-CRISPR F0 mutants", "format": "in vivo, zebrafish", "settings": "kmt2d-CRISPR F0, 100 nM, 5 dpf; listed as dmDf", "source_text": "Prior and current genetic zebrafish models of KS focused on the newly discovered rap1a/rap1b genes. However, from the perspective of clinical utility, dmDf should be efficacious in kmt2d mutants, since loss of function mutations of the human ortholog account for as much as 75% of KS (see, Ng, S. B. et al. Nat Genet 42, 790-3 (2010); Li, Y. et al. Hum Genet 130, 715-24 (2011); Lu, J., Mo, G., Ling, Y. & Ji, L. Mol Med Rep 14, 3641-5 (2016); Miyake, N. et al. Am J Med Genet A 161a, 2234-43 (2013)). Therefore, experiments supplemented the testing tools by creating a kmt2d CRISPR/Cas9 mutant. A guide RNA targeting exon 4 of kmt2d induced efficient (˜99%) Cas9-mediated genome editing (FIG. 8). […]\nFor convergence and extension (CE) phenotyping, embryos were scored as described (see, Leitch, C. C. et al. Nat Genet 40, 443-8 (2008)) at the 8-10 somite stage, and images were captured using an AZ100 microscope and NIS Elements software (Nikon). […] The distance between Meckel's (MK) and ceratohyal (CH) cartilages was measured on ventral bright field images with Image J (NIH). […] Fluorescence signal on embryo heads was imaged with the Nikon AZ100 microscope and DS-Qi1MC digital camera using […] Z-stacks to generate extended depth of focus images. Cell numbers were quantified using the ImageJ ICTN plugin (NIH). […]", "note": "Entries after “also recorded” stand apart in the source; their conditions may differ.", "data": [{"smiles": "CC(C)c1nc(-c2cccc(NS(=O)(=O)c3c(F)cccc3F)c2F)c(-c2ccnc(N)n2)s1", "note": "[Compound 8, desmethyl-Dabrafenib]", "values": [{"measurement": "jaw defects (MK-CH distance)", "value": "ameliorates the jaw defects; also recorded: ameliorated significantly"}]}]}
